Laboratory results: publication PMC8294059, “Identification and Immune Assessment of T Cell Epitopes in Five Plasmodium falciparum Blood Stage Antigens to Facilitate Vaccine Candidate Selection and Optimization” (Frontiers in Immunology, 2021)
pIC50: −log10 of the molar value. Where a SMILES comes first, the peptide text is derived from it.

molecular target: HLA-A*0201 (Homo sapiens, UniProt P04439, D140Y/D185E/D98H/E176V/E277Q/G131W/G231S/I119V/I121R/I166T/I218V/L300P/L318F/N151K/N90K/P208A/P217A/Q86G/Q94H/R138H/R169H/T345S); test: In vitro class I HLA binding assay (fluorescence polarization competition); conditions: allele A*0201; cell-free competition, fluorescence polarization at 72 hours; Non-binder = no dose-dependent inhibition; read-out: IC50
Procedure: A cell-free class I HLA binding assay that allows for in vitro quantification of peptide-HLA binding affinity in a competition format was used. In this assay, a fluorescently labeled, high binding, control peptide is loaded onto 384-well ½-area plates along with unlabeled experimental peptides. To remove endogenous peptides and render the HLA A and B molecules receptive to binding, HLA is heated at 53°C for 15 minutes and immediately added to the assay. The mixture is then allowed to stand for three days. Once the mixture has reached steady equilibrium (at 72 hours), displacement of the high binding control peptide is measured through fluorescence polarization. Binding of experimental peptides is expressed as the percent inhibition of the labeled control peptide (experimental fluorescence / control fluorescence, multiplied by 100). The percent inhibition values for each experimental peptide (across a range of molar concentrations) are used to calculate the concentration which inhibits 50% of the labeled control peptide’s specific binding. This value is referred to as the peptide’s IC50.

Compound	pIC50
CC[C@H](C)[C@H](NC(=O)[C@H](CC(C)C)NC(=O)[C@@H](N)CO)C(=O)N[C@@H](CCCCN)C(=O)N[C@@H](CCC(N)=O)C(=O)N[C@@H](CC(N)=O)C(=O)N[C@@H](CCCCN)C(=O)N[C@@H](Cc1ccc(O)cc1)C(=O)N[C@H](C(=O)O)C(C)C [EBA175_0116] (H-SLIKQNKYV-OH)	4.52
CC[C@H](C)[C@H](NC(=O)[C@@H](NC(=O)[C@H](CC(N)=O)NC(=O)[C@H](CC(=O)O)NC(=O)[C@H](CC(N)=O)NC(=O)CNC(=O)[C@H](CC(N)=O)NC(=O)[C@H](CC(C)C)NC(=O)[C@@H](NC(=O)[C@@H](N)CO)C(C)C)[C@@H](C)O)C(=O)O [EBA175_0436] (H-SVLNGNDNTI-OH)	3.19
CC[C@H](C)[C@H](NC(=O)[C@@H](NC(=O)[C@H](CC(N)=O)NC(=O)[C@H](CC(=O)O)NC(=O)[C@H](CC(N)=O)NC(=O)CNC(=O)[C@H](CC(N)=O)NC(=O)[C@H](CC(C)C)NC(=O)[C@@H](N)C(C)C)[C@@H](C)O)C(=O)O [EBA175_0437] (H-VLNGNDNTI-OH)	5.14
CC[C@H](C)[C@H](NC(=O)[C@H](CO)NC(=O)[C@H](CCCCN)NC(=O)[C@H](Cc1ccccc1)NC(=O)[C@H](CCC(=O)O)NC(=O)[C@H](CO)NC(=O)[C@H](Cc1ccc(O)cc1)NC(=O)[C@H](CCSC)NC(=O)[C@@H](N)CCCCN)C(=O)O [EBA175_0697] (H-KMYSEFKSI-OH)	5.99
CC(C)C[C@H](NC(=O)[C@H](CC(N)=O)NC(=O)[C@H](CC(=O)O)NC(=O)[C@@H](NC(=O)[C@@H](NC(=O)[C@H](CCC(=O)O)NC(=O)[C@H](Cc1ccccc1)NC(=O)[C@H](CC(C)C)NC(=O)[C@@H](N)Cc1ccccc1)C(C)C)[C@@H](C)O)C(=O)O [EBA175_1461] (H-FLFEVTDNL-OH)	6.57

same assay, conditions: allele A*0201; fluorescence polarization competition; read-out: IC50 (nM), in vitro HLA binding affinity

Compound	IC50
CC[C@H](C)[C@H](NC(=O)[C@H](CCSC)NC(=O)[C@@H](N)CO)C(=O)N[C@@H](CCCCN)C(=O)N[C@@H](CO)C(=O)N[C@@H](C)C(=O)N[C@@H](Cc1ccccc1)C(=O)N[C@@H](CC(C)C)C(=O)N1CCC[C@H]1C(=O)N[C@H](C(=O)O)[C@@H](C)O [AMA1_373] (H-SMIKSAFLPT-OH)	12500 nM
CC(C)C[C@H](NC(=O)[C@@H](N)Cc1ccccc1)C(=O)N1CCC[C@H]1C(=O)N[C@H](C(=O)NCC(=O)N[C@@H](C)C(=O)N[C@@H](Cc1ccccc1)C(=O)N[C@@H](CCCCN)C(=O)N[C@@H](C)C(=O)O)[C@@H](C)O [AMA1_379] (H-FLPTGAFKA-OH)	1390 nM
CC[C@H](C)[C@H](NC(=O)[C@H](Cc1ccc(O)cc1)NC(=O)[C@H](CO)NC(=O)[C@H](CO)NC(=O)[C@H](CC(N)=O)NC(=O)[C@H](CC(N)=O)NC(=O)[C@@H](NC(=O)[C@H](CC(C)C)NC(=O)[C@@H](N)CS)[C@@H](C)CC)C(=O)O [AMA1_418] (H-CLINNSSYI-OH)	3820 nM
CC[C@H](C)[C@H](NC(=O)[C@@H](N)Cc1ccccc1)C(=O)N[C@@H](CO)C(=O)N[C@@H](CC(=O)O)C(=O)N[C@@H](CC(=O)O)C(=O)N[C@@H](CCCCN)C(=O)N[C@@H](CC(=O)O)C(=O)N[C@@H](CO)C(=O)N[C@@H](CC(C)C)C(=O)O [AMA1_480] (H-FISDDKDSL-OH)	336000 nM
CC[C@H](C)[C@H](NC(=O)[C@@H](NC(=O)[C@H](C)NC(=O)[C@H](CC(C)C)NC(=O)[C@@H](NC(=O)[C@H](C)N)C(C)C)[C@@H](C)O)C(=O)N[C@@H](CC(C)C)C(=O)N[C@@H](CCSC)C(=O)N[C@H](C(=O)O)C(C)C [AMA1_556] (H-AVLATILMV-OH)	23600 nM
CC(C)C[C@H](NC(=O)[C@H](Cc1ccccc1)NC(=O)[C@H](Cc1ccccc1)NC(=O)[C@H](Cc1ccc(O)cc1)NC(=O)[C@H](CCC(N)=O)NC(=O)[C@@H](NC(=O)CNC(=O)[C@H](CC(C)C)NC(=O)[C@@H](N)CCCCN)C(C)C)C(=O)O [CYRPA_220] (H-KLGVQYFFL-OH)	805 nM
CC[C@H](C)[C@H](NC(=O)[C@H](CC(N)=O)NC(=O)[C@H](CC(=O)O)NC(=O)CNC(=O)[C@@H](NC(=O)[C@@H](N)Cc1ccc(O)cc1)C(C)C)C(=O)N[C@@H](CC(N)=O)C(=O)N[C@@H](CC(N)=O)C(=O)N[C@H](C(=O)O)C(C)C [CYRPA_242] (H-YVGDNINNV-OH)	1820 nM
CC[C@H](C)[C@H](NC(=O)[C@H](CO)NC(=O)[C@H](CC(N)=O)NC(=O)[C@H](CCC(=O)O)NC(=O)[C@H](CC(N)=O)NC(=O)[C@H](CC(N)=O)NC(=O)[C@H](Cc1ccccc1)NC(=O)[C@H](Cc1ccccc1)NC(=O)[C@@H](NC(=O)[C@@H](N)Cc1ccc(O)cc1)[C@@H](C)CC)C(=O)O [CYRPA_304] (H-YIFFNNENSI-OH)	2830 nM
CC(C)C[C@H](NC(=O)CNC(=O)[C@H](CC(=O)O)NC(=O)[C@H](CC(N)=O)NC(=O)[C@@H](NC(=O)[C@H](CC(N)=O)NC(=O)[C@@H](NC(=O)[C@H](CC(N)=O)NC(=O)[C@H](CC(C)C)NC(=O)[C@@H](N)Cc1ccc(O)cc1)[C@@H](C)O)C(C)C)C(=O)O [RH5_86] (H-YLNTNVNDGL-OH)	2830 nM
CC(C)C[C@H](NC(=O)[C@H](CCC(=O)O)NC(=O)[C@H](CCCCN)NC(=O)[C@H](Cc1ccccc1)NC(=O)[C@H](Cc1c[nH]cn1)NC(=O)[C@H](Cc1ccc(O)cc1)NC(=O)[C@H](CCC(N)=O)NC(=O)[C@H](CC(C)C)NC(=O)[C@@H](N)Cc1ccccc1)C(=O)O [RH5_144] (H-FLQYHFKEL-OH)	14600 nM
CC[C@H](C)[C@H](NC(=O)[C@@H](N)CCCCN)C(=O)N[C@@H](CC(N)=O)C(=O)N[C@@H](CCC(=O)O)C(=O)N[C@H](C(=O)N[C@@H](Cc1ccc(O)cc1)C(=O)N[C@@H](CC(=O)O)C(=O)N[C@@H](CCCCN)C(=O)N[C@H](C(=O)O)C(C)C)[C@@H](C)O [RH5_212] (H-KINETYDKV-OH)	10100 nM
CC[C@H](C)[C@H](NC(=O)[C@H](CC(C)C)NC(=O)[C@H](CCCCN)NC(=O)[C@H](Cc1c[nH]cn1)NC(=O)[C@@H](NC(=O)[C@@H](N)Cc1ccc(O)cc1)[C@@H](C)CC)C(=O)N[C@@H](CC(C)C)C(=O)N[C@@H](CO)C(=O)N[C@H](C(=O)O)C(C)C [RH5_363] (H-YIHKLILSV-OH)	1150 nM
CC[C@H](C)[C@H](NC(=O)[C@H](Cc1ccccc1)NC(=O)[C@H](CCCCN)NC(=O)[C@@H](NC(=O)[C@@H](NC(=O)[C@H](CC(=O)O)NC(=O)[C@@H](NC(=O)[C@H](Cc1ccc(O)cc1)NC(=O)[C@@H](NC(=O)[C@@H](N)Cc1ccc(O)cc1)[C@@H](C)CC)[C@@H](C)CC)[C@@H](C)O)[C@@H](C)CC)C(=O)O [RH5_404] (H-YIYIDTIKFI-OH)	53100 nM
CC[C@H](C)[C@H](N)C(=O)N[C@@H](CC(C)C)C(=O)N[C@@H](CC(=O)O)C(=O)N[C@@H](CCSC)C(=O)N[C@@H](CO)C(=O)N[C@@H](CC(N)=O)C(=O)N[C@@H](CCC(=O)O)C(=O)N[C@@H](Cc1ccc(O)cc1)C(=O)N[C@@H](CO)C(=O)N[C@@H](CC(C)C)C(=O)O [RH5_459] (H-ILDMSNEYSL-OH)	6870 nM
CC[C@H](C)[C@H](NC(=O)[C@H](Cc1ccccc1)NC(=O)[C@H](CC(C)C)NC(=O)[C@@H](N)CO)C(=O)N[C@H](C(=O)N[C@@H](CO)C(=O)N[C@@H](CC(=O)O)C(=O)N[C@@H](Cc1c[nH]cn1)C(=O)N[C@@H](CC(C)C)C(=O)O)[C@@H](C)O [RH5_467] (H-SLFITSDHL-OH)	7120 nM
CSCC[C@H](NC(=O)[C@H](CCC(N)=O)NC(=O)[C@@H](N)CCCNC(=N)N)C(=O)N[C@@H](CC(C)C)C(=O)N[C@@H](Cc1ccc(O)cc1)C(=O)N[C@@H](CC(N)=O)C(=O)N[C@H](C(=O)N[C@@H](Cc1ccccc1)C(=O)N[C@@H](Cc1ccc(O)cc1)C(=O)N[C@@H](CO)C(=O)O)[C@@H](C)O [RH5_476] (H-RQMLYNTFYS-OH)	319000 nM
